Reference: the NIST ThermoML archive (doi:10.1007/s10765-012-1352-4)

Test: xn = mol fraction of the nth substance listed
Details: Gas, Loschmidt diffusion cell combined with holoholographic interferometry

[Ne] [neon] + [Ar]
binary diffusion coefficient [m2/s]
Details	100 kPa	200 kPa	500 kPa	1000 kPa
293.15 K, x2 = 0.1	3.14e-10	1.57e-10	6.34e-11	3.1e-11
293.15 K, x2 = 0.12	3.14e-10	1.57e-10	6.32e-11	3.1e-11
293.15 K, x2 = 0.14	3.13e-10	1.57e-10	6.31e-11	3.1e-11
293.15 K, x2 = 0.16	3.13e-10	1.57e-10	6.3e-11	3.09e-11
293.15 K, x2 = 0.18	3.12e-10	1.56e-10	6.29e-11	3.09e-11
293.15 K, x2 = 0.2	3.11e-10	1.56e-10	6.28e-11	3.08e-11
293.15 K, x2 = 0.22	3.11e-10	1.56e-10	6.27e-11	3.08e-11
293.15 K, x2 = 0.24	3.1e-10	1.56e-10	6.27e-11	3.07e-11
293.15 K, x2 = 0.26	3.1e-10	1.56e-10	6.26e-11	3.07e-11
293.15 K, x2 = 0.28	3.1e-10	1.56e-10	6.25e-11	3.06e-11
293.15 K, x2 = 0.3	3.09e-10	1.56e-10	6.24e-11	3.06e-11
293.15 K, x2 = 0.32	3.08e-10	1.55e-10	6.23e-11	3.05e-11
293.15 K, x2 = 0.34	3.08e-10	1.55e-10	6.22e-11	3.04e-11
293.15 K, x2 = 0.36	3.07e-10	1.55e-10	6.21e-11	3.03e-11
293.15 K, x2 = 0.38	3.08e-10	1.54e-10	6.2e-11	3.02e-11
293.15 K, x2 = 0.4	3.07e-10	1.54e-10	6.19e-11	3.01e-11
293.15 K, x2 = 0.6	3.1e-10	1.56e-10	6.31e-11	3.13e-11
293.15 K, x2 = 0.62	3.09e-10	1.56e-10	6.29e-11	3.13e-11
293.15 K, x2 = 0.64	3.09e-10	1.56e-10	6.28e-11	3.13e-11
293.15 K, x2 = 0.66	3.09e-10	1.56e-10	6.28e-11	3.12e-11
293.15 K, x2 = 0.68	3.09e-10	1.56e-10	6.28e-11	3.12e-11
293.15 K, x2 = 0.7	3.09e-10	1.56e-10	6.28e-11	3.12e-11
293.15 K, x2 = 0.72	3.1e-10	1.56e-10	6.28e-11	3.12e-11
293.15 K, x2 = 0.74	3.1e-10	1.56e-10	6.28e-11	3.12e-11
293.15 K, x2 = 0.76	3.1e-10	1.56e-10	6.28e-11	3.13e-11
293.15 K, x2 = 0.78	3.1e-10	1.57e-10	6.28e-11	3.13e-11
293.15 K, x2 = 0.8	3.1e-10	1.57e-10	6.28e-11	3.13e-11
293.15 K, x2 = 0.82	3.1e-10	1.57e-10	6.29e-11	3.13e-11
293.15 K, x2 = 0.84	3.11e-10	1.57e-10	6.29e-11	3.13e-11
293.15 K, x2 = 0.86	3.11e-10	1.57e-10	6.29e-11	3.13e-11
293.15 K, x2 = 0.88	3.11e-10	1.57e-10	6.3e-11	3.14e-11
293.15 K, x2 = 0.9	3.11e-10	1.57e-10	6.3e-11	3.14e-11
313.15 K, x2 = 0.1	3.56e-10	1.78e-10	7.02e-11	3.5e-11
313.15 K, x2 = 0.12	3.54e-10	1.77e-10	7e-11	3.49e-11
313.15 K, x2 = 0.14	3.53e-10	1.77e-10	6.99e-11	3.49e-11
313.15 K, x2 = 0.16	3.52e-10	1.77e-10	6.98e-11	3.48e-11
313.15 K, x2 = 0.18	3.52e-10	1.76e-10	6.97e-11	3.47e-11
313.15 K, x2 = 0.2	3.51e-10	1.76e-10	6.96e-11	3.47e-11
313.15 K, x2 = 0.22	3.51e-10	1.76e-10	6.95e-11	3.46e-11
313.15 K, x2 = 0.24	3.49e-10	1.75e-10	6.94e-11	3.45e-11
313.15 K, x2 = 0.26	3.49e-10	1.75e-10	6.92e-11	3.44e-11
313.15 K, x2 = 0.28	3.48e-10	1.75e-10	6.91e-11	3.44e-11
313.15 K, x2 = 0.3	3.47e-10	1.74e-10	6.89e-11	3.42e-11
313.15 K, x2 = 0.32	3.47e-10	1.74e-10	6.88e-11	3.41e-11
313.15 K, x2 = 0.34	3.46e-10	1.74e-10	6.86e-11	3.4e-11
313.15 K, x2 = 0.36	3.46e-10	1.74e-10	6.84e-11	3.39e-11
313.15 K, x2 = 0.38	3.45e-10	1.73e-10	6.82e-11	3.37e-11
313.15 K, x2 = 0.4	3.44e-10	1.73e-10	6.79e-11	3.35e-11
313.15 K, x2 = 0.6	3.52e-10	1.75e-10	7.09e-11	3.52e-11
313.15 K, x2 = 0.62	3.51e-10	1.75e-10	7.08e-11	3.51e-11
313.15 K, x2 = 0.64	3.51e-10	1.75e-10	7.07e-11	3.5e-11
313.15 K, x2 = 0.66	3.5e-10	1.75e-10	7.06e-11	3.5e-11
313.15 K, x2 = 0.68	3.5e-10	1.75e-10	7.06e-11	3.5e-11
313.15 K, x2 = 0.7	3.5e-10	1.75e-10	7.05e-11	3.5e-11
313.15 K, x2 = 0.72	3.5e-10	1.75e-10	7.05e-11	3.5e-11
313.15 K, x2 = 0.74	3.49e-10	1.75e-10	7.05e-11	3.5e-11
313.15 K, x2 = 0.76	3.49e-10	1.75e-10	7.06e-11	3.5e-11
313.15 K, x2 = 0.78	3.49e-10	1.75e-10	7.06e-11	3.5e-11
313.15 K, x2 = 0.8	3.49e-10	1.75e-10	7.06e-11	3.5e-11
313.15 K, x2 = 0.82	3.49e-10	1.75e-10	7.06e-11	3.5e-11
313.15 K, x2 = 0.84	3.49e-10	1.76e-10	7.07e-11	3.5e-11
313.15 K, x2 = 0.86	3.5e-10	1.76e-10	7.07e-11	3.5e-11
313.15 K, x2 = 0.88	3.51e-10	1.76e-10	7.07e-11	3.51e-11
313.15 K, x2 = 0.9	3.51e-10	1.76e-10	7.08e-11	3.51e-11
333.15 K, x2 = 0.1	3.99e-10	1.97e-10	7.82e-11	3.91e-11
333.15 K, x2 = 0.12	3.97e-10	1.97e-10	7.8e-11	3.9e-11
333.15 K, x2 = 0.14	3.95e-10	1.96e-10	7.79e-11	3.89e-11
333.15 K, x2 = 0.16	3.94e-10	1.96e-10	7.77e-11	3.88e-11
333.15 K, x2 = 0.18	3.93e-10	1.95e-10	7.76e-11	3.87e-11
333.15 K, x2 = 0.2	3.91e-10	1.95e-10	7.74e-11	3.86e-11
333.15 K, x2 = 0.22	3.91e-10	1.95e-10	7.72e-11	3.86e-11
333.15 K, x2 = 0.24	3.89e-10	1.94e-10	7.7e-11	3.85e-11
333.15 K, x2 = 0.26	3.89e-10	1.94e-10	7.69e-11	3.84e-11
333.15 K, x2 = 0.28	3.87e-10	1.93e-10	7.67e-11	3.83e-11
333.15 K, x2 = 0.3	3.86e-10	1.93e-10	7.65e-11	3.82e-11
333.15 K, x2 = 0.32	3.86e-10	1.93e-10	7.63e-11	3.81e-11
333.15 K, x2 = 0.34	3.84e-10	1.92e-10	7.6e-11	3.8e-11
333.15 K, x2 = 0.36	3.83e-10	1.91e-10	7.57e-11	3.79e-11
333.15 K, x2 = 0.38	3.83e-10	1.91e-10	7.53e-11	3.77e-11
333.15 K, x2 = 0.4	3.8e-10	1.9e-10	7.48e-11	3.75e-11
333.15 K, x2 = 0.6	3.87e-10	1.94e-10	7.82e-11	3.91e-11
333.15 K, x2 = 0.62	3.85e-10	1.94e-10	7.81e-11	3.91e-11
333.15 K, x2 = 0.64	3.84e-10	1.94e-10	7.8e-11	3.9e-11
333.15 K, x2 = 0.66	3.85e-10	1.94e-10	7.8e-11	3.9e-11
333.15 K, x2 = 0.68	3.85e-10	1.94e-10	7.79e-11	3.9e-11
333.15 K, x2 = 0.7	3.85e-10	1.94e-10	7.79e-11	3.89e-11
333.15 K, x2 = 0.72	3.86e-10	1.93e-10	7.79e-11	3.89e-11
333.15 K, x2 = 0.74	3.85e-10	1.94e-10	7.8e-11	3.89e-11
333.15 K, x2 = 0.76	3.86e-10	1.94e-10	7.8e-11	3.9e-11
333.15 K, x2 = 0.78	3.86e-10	1.94e-10	7.8e-11	3.9e-11
333.15 K, x2 = 0.8	3.86e-10	1.94e-10	7.8e-11	3.9e-11
333.15 K, x2 = 0.82	3.86e-10	1.94e-10	7.81e-11	3.9e-11
333.15 K, x2 = 0.84	3.86e-10	1.94e-10	7.81e-11	3.9e-11
333.15 K, x2 = 0.86	3.86e-10	1.94e-10	7.82e-11	3.9e-11
333.15 K, x2 = 0.88	3.86e-10	1.94e-10	7.82e-11	3.91e-11
333.15 K, x2 = 0.9	3.86e-10	1.94e-10	7.82e-11	3.91e-11
